One series deals with T1, PSMA (Homo sapiens, UniProt Q04609).
T1 construct: expressed in transfected cells; host or cells: PC3pip cells (PC3 retrovirally transduced with PSMA), from Dr. Michel Sadelain, MSKCC
The series is described as follows: Competition binding studies, Example 2. As for the experimental part:
PC3pip cells ([…]) was suspended in 200 μL of 50 mM Tris buffer, pH 7.5. The cells were incubated at 37° C. with different concentrations of PSMA-1-MMAE-IR700 or ZJ24 in the presence of 12 nM of 3H-ZJ24 for 1 h. The cells were then washed 3 times with cold PBS and cell-associated radioactivity was measured by scintillation counting. The concentration required to inhibit 50% of the binding (IC50) was determined by GraphPad Prism 3.0. Studies were performed in triplicate.

A further series addresses T2, human liver cathespin (Homo sapiens, UniProt P07858).
T2 construct: purchased Anthens Research and Technology, Anthens, GA; host or cells: human liver (tissue-derived enzyme)
Kind of series: Cathepsin cleavage studies, Example 2. The format is in vitro ADME. As to conditions: 37° C., HPLC. As for the experimental part:
(§1) Enzymatic cleavage study of PSMA-1-MMAE-IR700 was performed as previously described. PSMA-1-MMAE-IR700 was incubated with activated human liver cathespin (Anthens Research and Technology, Anthens, GA) at 37° C. At different incubation time, 40 μL of the solution was placed into tubes loaded with 1 μL of 1 mM E64 protease inhibitor. The mixture was vortexed and then stored at −80° C. for future HPLC analysis. Studies were performed in triplicate. In vitro cellular uptake studies cells were plated on coverslips at about 60-70% confluency. Twenty-four hours later, cells were incubated with 50 nM of PSMA-1-MMAE-IR700. After incubation for various times (15 min, 30 min, 1 h and 4 h), cells were washed twice with cold RPMI 1640, fixed with 4% paraformaldehyde and counterstained with 4′,6-diamidino-2-phenylindole (DAPI). Images were taken using a Leica DM4000B fluorescence microscope (Leica Biosystems, Buffalo Gove, IL) at 40×. Blocking experiments were performed by co-incubation of cells with 50 nM of PSMA-1-MMAE-IR700 and 100× of PSMA-1 ligand. Studies were performed in triplicate.

The nature of series [1]: Stability in PBS, Example 2. Conditions: incubated at 37° C. The format is physicochemical. The source says:
To synthesize PSMA-1-MMAE-IR700 (FIG. 6A), we used a self-immolative cathespsin cleavable Vc linker to conjugate MMAE to PSMA-1-Cys-C6-Lys. IR700 was conjugated to the PSMA-1 ligand through reaction of the Lys amine (—NH2) with NHS ester as no IR700 release is required for light activation. […] Degradation of PSMA-1-MMAE-IR700 led to release of free MMAE.

In series [2] the test system is PSMA-negative PC3flu cells. The series is described as follows: In vitro uptake studies, Example 2, PC3flu. The format is cell-based, human. Conditions: 50 nM. The procedure: as §1
The subject of another series is PC3pip tumors. The series is described as follows: In vivo antitumor efficacy studies with PDT. The arrangement: species or system mice. As for the experimental part: The effect of PSMA-1-MMAE-IR700 were tested in mice bearing PC3pip tumors. Animals with tumor size at about 100 mm3 were used for the study (tumor volume=Length×width2/2). Animals were divided into 7 groups: (1) mice receiving PBS; (2) mice receiving 100 nmol/kg PSMA-1-MMAE-IR700 with PDT; (3) mice receiving equal doses of PSMA-1-MMAE-IR700 to group 2, but not receiving PDT; (4) Mice receiving equal doses of PSMA-1-IR700 to group 2 with PDT treatment; (5) Mice receiving equal doses of PSMA-1-IR700 to group 2 without PDT; (6) mice receiving equal doses of PSMA-1-IR700 to group 2+free MMAE with PDT (MMAE normalized to that delivered by PSMA-1-MMAE-IR700); and (7) mice receiving equal doses of PSMA-1-IR700 to group 2+free MMAE without PDT. Each group had 5 mice. Animals received drugs through tail vein injection on day 0, 4, 8, 12 and 16 and treated with 50 J/cm2 of 690 nm light at 1 h post-injection on these injection days. The dose and schedule was based on previous PSMA-1-VcMMAE work and were not optimized. Animals were imaged before and after PDT. Mice were monitored every other day for 90 days. Animals were euthanized when tumors became too large (diameter >20 mm) or animals were moribund. Data were reported as body weight over time, tumor size over time and Kaplan-Meier survival plots.

Series [3] can be described thus: Pharmacokinetic studies based on fluorescence. The format is in vivo, mice. Conditions: after 4 h post injection almost all drug was cleared. An excerpt: Prostate cancer is highly heterogeneous, which will affect treatment response, drug resistance and clinical outcome. The use of combination therapies with different mechanisms of action will offer potential advantages over a single therapy and it can be an effective way to deal with the ‘heterogeneity’ of cancer cells. […] The use of anticancer drugs is therefore limited by unwanted side effects. To overcome these problems, we have developed a multifunctional molecule named PSMA-1-MMAE-IR700 that combines chemotherapy, PDT, and imaging in a single molecule that is targeted to PSMA. PSMA is over expressed almost exclusively on prostate cancer (FIG. 6A). MMAE was selected as the chemotherapeutic drug because of its high potency, its wide use in antibody drug conjugates, its synergy with PDT and the fact that we have successfully targeted it to PSMA for the treatment of prostate cancer with a greater therapeutic index when compared to a PSMA-targeted antibody drug conjugate using MMAE. IR700 was selected as the photosensitizer due to its good water-solubility, its high fluorescence quantum yield and singlet oxygen yield, its long wavelength absorption (690 nm), and the fact that a cetuximab-IR700 conjugate (RM-1929) has been approved in Japan for local regional treatment of head and neck cancer. […] The fluorescence from IR700 allowed visualization of uptake studies of PSMA-1-MMAE-IR700. […]

T1 sequence (Q04609 whole entry): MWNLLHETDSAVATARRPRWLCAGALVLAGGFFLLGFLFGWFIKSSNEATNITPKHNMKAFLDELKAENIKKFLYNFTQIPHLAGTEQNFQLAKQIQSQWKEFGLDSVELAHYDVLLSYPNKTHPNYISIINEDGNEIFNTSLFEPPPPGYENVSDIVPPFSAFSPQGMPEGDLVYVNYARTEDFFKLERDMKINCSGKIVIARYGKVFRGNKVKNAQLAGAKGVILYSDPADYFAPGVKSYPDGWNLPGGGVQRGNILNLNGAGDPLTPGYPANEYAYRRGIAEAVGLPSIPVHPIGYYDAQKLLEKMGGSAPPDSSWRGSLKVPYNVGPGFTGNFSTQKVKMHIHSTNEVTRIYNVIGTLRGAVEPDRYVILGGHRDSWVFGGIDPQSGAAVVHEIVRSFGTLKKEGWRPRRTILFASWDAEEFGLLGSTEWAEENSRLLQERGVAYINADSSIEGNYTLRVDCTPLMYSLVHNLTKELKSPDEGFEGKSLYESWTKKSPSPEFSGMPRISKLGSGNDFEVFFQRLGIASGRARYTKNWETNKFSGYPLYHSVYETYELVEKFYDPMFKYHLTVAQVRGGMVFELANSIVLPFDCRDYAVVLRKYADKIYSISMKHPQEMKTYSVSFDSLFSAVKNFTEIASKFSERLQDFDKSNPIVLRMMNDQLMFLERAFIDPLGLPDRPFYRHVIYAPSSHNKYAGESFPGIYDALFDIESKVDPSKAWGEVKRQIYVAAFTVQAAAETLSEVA

As to `CC[C@H](C)[C@@H]([C@@H](CC(=O)N1CCC[C@H]1[C@H](OC)[C@@H](C)C(=O)N[C@H](C)[C@@H](O)c1ccccc1)OC)N(C)C(=O)[C@@H](NC(=O)[C@H](C(C)C)N(C)C(=O)OCc1ccc(NC(=O)[C@H](CCCNC(N)=O)NC(=O)[C@@H](NC(=O)CCCCCN2C(=O)CC(SC[C@H](NC(=O)[C@H](CCC(=O)O)NC(=O)[C@H](CCC(=O)O)NC(=O)[C@H](CCC(=O)O)NC(=O)CCCCCNC(=O)[C@H]3CC[C@H](CNC(=O)CC[C@H](NC(=O)N[C@@H](CCC(=O)O)C(=O)O)C(=O)O)CC3)C(=O)NCCCCCC(=O)N[C@@H](CCCCNC(=O)CCCCCNC(=O)OCCCOc3cccc4c5n6c(c34)=NC3=NC(=Nc4c7ccccc7c(n4[Si]6(O[Si](C)(C)CCC[N+](CCCS(=O)(=O)[O-])(CCCS(=O)(=O)O)CCCS(=O)(=O)O)O[Si](C)(C)CCC[N+](CCCS(=O)(=O)[O-])(CCCS(=O)(=O)O)CCCS(=O)(=O)O)N=C4N=C(N=5)c5ccccc54)c4ccccc43)C(N)=O)C2=O)C(C)C)cc1)C(C)C` (stereo partly shown) [PSMA-1-MMAE-IR700], on PSMA, the “binding relative to ZJ24” value is recorded as 4.4 fold. Further, at human liver cathespin, the “degradation in the presence of cathepsin” value is on record as “degraded rapidly”. Also, the “stability in PBS” value in series [1] was “stable”. In series [2], the “fluorescence signal (uptake) in PC3flu cells” value is “no fluorescence signal was observed”. Further, the “tumor growth, with light irradiation (PDT)” value in the series with PC3pip tumors (100 nmol/kg every 4 days, 5 doses, 50 J/cm^2 of 690 nm light) is recorded as “greatest tumor growth inhibition”. The “tumor growth, no light treatment” value in the series on PC3pip tumors (100 nmol/kg every 4 days, 5 doses, no light) was “significantly inhibited tumor growth”. For the same compound, the “cure rate for tumors” value with PC3pip tumors (100 nmol/kg with light irradiation, 90-day period) was determined as 60%. The “histological analysis of major organs on day 30” value in the series with PC3pip tumors (liver, lung, heart, spleen, kidney, salivary gland and prostate) is “did not cause systemic toxicity”. In addition, the body weight loss result with PC3pip tumors (treatment groups) is given as “did not cause any body weight loss”. The “clearance from the blood” value in series [3] is recorded as “cleared quickly from the blood”.

The values above are taken from patent US20250332265A1, “PSMA TARGETED CONJUGATE COMPOUNDS AND USES THEREOF” (priority 2021, published 2025).
